The values below come from PMC6542772, “Plant Cytosolic Ascorbate Peroxidase with Dual Catalytic Activity Modulates Abiotic Stress Tolerances” (iScience, 2019).

Common to all, as to type: biochemical
The target in test [1] is T1, AtCytAPX1 (Arabidopsis thaliana, UniProt Q05431).
T1 construct: gene APX1; ~27 kDa; MBP fusion from E. coli, MBP removed by factor Xa
T1 sequence (Q05431 1-250): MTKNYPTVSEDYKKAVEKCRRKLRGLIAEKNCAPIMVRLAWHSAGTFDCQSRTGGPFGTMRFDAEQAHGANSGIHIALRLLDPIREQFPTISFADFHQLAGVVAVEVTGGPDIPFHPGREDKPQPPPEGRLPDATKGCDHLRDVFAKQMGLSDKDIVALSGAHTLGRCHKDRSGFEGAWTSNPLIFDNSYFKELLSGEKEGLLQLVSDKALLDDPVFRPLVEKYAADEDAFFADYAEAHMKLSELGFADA
The test is described as follows: APX activity assay, in-gel and in solution. The conditions noted are these: H2O2 co-substrate.

The target of test [2] is T2, OgCytAPX1 (Oncidium cytosolic ascorbate peroxidase 1) (Oncidium hybrid cultivar, UniProt B8XF08).
T2 construct: full length, 250 residues, ~27 kDa; cloned from pseudobulb mRNA; MBP fusion (pMAL-c5x) from E. coli BL21, MBP removed by factor Xa
T2 sequence (B8XF08 entry or part of it): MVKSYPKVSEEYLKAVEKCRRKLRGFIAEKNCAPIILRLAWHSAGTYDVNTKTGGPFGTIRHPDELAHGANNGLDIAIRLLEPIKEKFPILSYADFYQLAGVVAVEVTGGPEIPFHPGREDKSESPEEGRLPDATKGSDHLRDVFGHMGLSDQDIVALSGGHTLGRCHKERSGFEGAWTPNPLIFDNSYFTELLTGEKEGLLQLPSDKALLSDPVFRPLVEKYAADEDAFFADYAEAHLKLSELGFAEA
Description: enzyme kinetics, Lineweaver-Burk. The following applies: H2O2 co-substrate; APX activity.

The target in test [3] is T3, CytAPX1 from G. max (Gm) (Glycine max, UniProt Q43758).
T3 construct: gene apx1; recombinant from E. coli, purified
T3 sequence (Q43758 1-250): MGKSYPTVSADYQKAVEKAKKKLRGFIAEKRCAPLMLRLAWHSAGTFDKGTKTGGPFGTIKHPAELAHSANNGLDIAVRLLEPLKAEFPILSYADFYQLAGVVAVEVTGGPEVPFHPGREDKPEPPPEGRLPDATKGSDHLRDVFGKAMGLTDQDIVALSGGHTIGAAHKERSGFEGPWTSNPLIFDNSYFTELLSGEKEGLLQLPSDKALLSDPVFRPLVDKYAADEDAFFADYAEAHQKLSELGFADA
Description: APX activity assay, in-gel and in solution. The conditions noted are these: H2O2 co-substrate.

For test [4], the target named is T4, CytAPX1 from O. sativa (Os) (Oryza sativa, UniProt Q10N21).
T4 construct: gene APX1; recombinant from E. coli, purified
T4 sequence (Q10N21 2-250): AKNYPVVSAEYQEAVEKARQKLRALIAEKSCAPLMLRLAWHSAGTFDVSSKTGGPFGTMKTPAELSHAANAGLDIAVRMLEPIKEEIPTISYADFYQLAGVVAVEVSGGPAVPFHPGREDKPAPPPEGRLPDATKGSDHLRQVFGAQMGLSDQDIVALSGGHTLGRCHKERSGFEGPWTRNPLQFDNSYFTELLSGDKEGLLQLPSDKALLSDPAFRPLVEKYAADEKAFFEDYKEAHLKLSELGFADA
The test is described as follows: APX activity assay, in-gel and in solution. The conditions noted are these: H2O2 co-substrate.

As to `O=C1O[C@H]([C@@H](O)CO)C(O)=C1O` [AsA], the “APX activity assay, in-gel and in solution” value in test [1] is “AtCytAPX1 displayed only APX activity”; in test [3], “Recombinant proteins from G. max, O. sativa, and Z. mays displayed both AsA and GSH”; in test [4], “Recombinant proteins from G. max, O. sativa, and Z. mays displayed both AsA and GSH”. In addition, the Km in test [2] came to 616 µM.

By Km is commonly meant the concentration of substrate that gives half-maximal velocity.
